In ChEMBL document CHEMBL5226369, “Tetracyclic Steroids Bearing a Bicyclo[4.4.1] Ring System as Potent Antiosteoporosis Agents from the Deep-Sea-Derived Fungus Rhizopus sp. W23” (J Nat Prod, 2023):

Experiments:
Assay type in all cases: functional, cell-based
[1] = Antiproliferative activity against human QGY-7701 cells by MTT assay; details: QGY7701
[2] = tested on: NCI-H1299; assay: Antiproliferative activity against human NCI-H1299 cells by MTT assay
[3] = tested on: HL-60; assay: Antiproliferative activity against human HL-60 cells by MTT assay
[4] = tested on: A-375; assay: Antiproliferative activity against human A-375 cells by MTT assay
[5] = tested on: KYSE-450; assay: Antiproliferative activity against human KYSE-450 cells by MTT assay
[6] = tested on: BGC-823; assay: Antiproliferative activity against human BGC-823 cells by MTT assay
[7] = tested on: U2OS; assay: Antiproliferative activity against human U2OS cells by MTT assay
[8] = tested on: K562; assay: Antiproliferative activity against human K562 cells by MTT assay
[9] = tested on: HCT-116; assay: Antiproliferative activity against human HCT-116 cells by MTT assay
[10] = tested on: MCF7; assay: Antiproliferative activity against human MCF7 cells by MTT assay
[11] = tested on: A-431; assay: Antiproliferative activity against human A-431 cells by MTT assay
[12] = tested on: HepG2; assay: Antiproliferative activity against human HepG2 cells by MTT assay
[13] = tested on: PC-3; assay: Antiproliferative activity against human PC-3 cells by MTT assay
[14] = tested on: PANC-1; assay: Antiproliferative activity against human PANC-1 cells by MTT assay
[15] = tested on: A549; assay: Antiproliferative activity against human A549 cells by MTT assay
[16] = Antiproliferative activity against human SKGT4 cells by MTT assay
[17] = tested on: MDA-MB-231; assay: Antiproliferative activity against human MDA-MB-231 cells by MTT assay
[18] = tested on: NCI-H460; assay: Antiproliferative activity against human NCI-H460 cells by MTT assay

Measured: IC50

C/C(=C\[C@H](O)[C@H](C)O)[C@H]1CC[C@H]2C3=CC(=O)[C@H]4CC(=CC[C@H](O)C4)[C@H]3CC[C@]12C [NEOCYCLOCITRINOL B]
> 20 µM: all assays above

C/C=C/[C@H](OC(C)=O)[C@](C)(O)[C@H]1CC[C@H]2C3=CC(=O)[C@H]4CC(=CC[C@H](O)C4)[C@H]3CC[C@]12C
> 20 µM: all assays above

CC(=O)/C=C/[C@@](C)(O)[C@H]1CC[C@H]2C3=CC(=O)[C@H]4CC(=CC[C@H](O)C4)[C@H]3CC[C@@]21C
> 20 µM: all assays above

C/C(=C\[C@@H](O)[C@@H](C)O)[C@H]1CC[C@H]2C3=CC(=O)[C@H]4CC(=CC[C@H](O)C4)[C@H]3CC[C@]12C
> 20 µM: all assays above

COC(/C=C(\C)[C@H]1CC[C@H]2C3=CC(=O)[C@H]4CC(=CC[C@H](O)C4)[C@H]3CC[C@]12C)C(C)O (stereo partly drawn)
> 20 µM: all assays above

C/C=C/[C@H](O)[C@](C)(O)[C@H]1CC[C@H]2C3=CC(=O)[C@H]4CC(=CC[C@H](O)C4)[C@H]3CC[C@]12C
> 20 µM: all assays above

C[C@]12CC[C@@H]3C4=CC[C@H](O)C[C@H](C4)C(=O)C=C3[C@@H]1CC[C@@H]2[C@](C)(O)CC(=O)O
> 20 µM: all assays above

CC(=O)OC(/C=C(\C)[C@H]1CC[C@H]2C3=CC(=O)[C@H]4CC(=CC[C@H](O)C4)[C@H]3CC[C@]12C)C(C)O (stereo partly drawn)
> 20 µM: all assays above

CC(=O)/C=C/[C@](C)(O)[C@H]1CC[C@H]2C3=CC(=O)[C@H]4CC(=CC[C@H](O)C4)[C@H]3CC[C@@]21C
> 20 µM: all assays above

C/C=C/[C@@H](O)[C@](C)(O)[C@H]1CC[C@H]2C3=CC(=O)[C@H]4CC(=CC[C@H](O)C4)[C@H]3CC[C@]12C
> 20 µM: all assays above

C/C(=C\C(=O)C(C)O)[C@H]1CC[C@H]2C3=CC(=O)[C@H]4CC(=CC[C@H](O)C4)[C@H]3CC[C@]12C (stereo partly drawn)
> 20 µM: all assays above
